{"source": "patent US9958439B2", "about": "“Carbohydrate detection” (RICHTER LIFE SCIENCE DEVELOPMENT AB, priority 2012, dated 2018)", "key": {"[1]": {"method": "(§1) The excitation spectrum of the probe was analyzed for wavelengths 300-500 nm with emission read at 545 nm.\n(§2) 3 μM of each probe was applied to serial two fold dilutions of the carbohydrate. Respective probes were excited at wavelengths unique to each probe (specified in figure), and emission was read at 545 nm.\n(§3) Serial dilutions of carbohydrate suspensions were prepared in dH2O. Concentrations ranging from 10 to 0.039 mg/ml was used for β-1,3-glucan, cellulose and chitin, whereas 5 to 0.019 mg/ml was used for sodium alginate, glucose, amylose, glycogen, cellulobiose, heparin, chondroitin sulfate A. 3 μM of each LCO probe was added to 1 ml aliquots of each concentration of carbohydrate, after which 100 μl was dispensed in triplicates into 96 well plates. Excitation spectra were collected by exciting the sample from 300 to 500 nm and detecting emission at 545 nm. Detection of carbohydrate is concluded when there is a reproducible change in λmax and/or RFU intensity with reference to the negative control. Data from three concentrations, as well as the negative control are shown for each carbohydrate as specified in respective figure.\n(§4) The excitation wavelength (emission detected at 545 nm) selected for each LCO is either (1) the λmax, or (2) the excitation wavelength which suffers the lowest background. A linear regression analysis is performed to determine the relationship between the carbohydrate concentration and RFU."}, "[2]": {"settings": "for RFU change (Correlation analysis) / RFU change (Signal deviation with increasing [Carbohydrate]): 3 μM probe; for RFU change (Correlation analysis): probe-specific excitation λ, emission 545 nm; for RFU change (Signal deviation with increasing [Carbohydrate]): spectral analysis, Excitation 300-500, Emission 545; for Gradient Parameters (gradient of regression line) / Linear relationship / Quality of Gradient: linear regression", "method": "(§5) 3 μM of each probe was applied to serial two fold dilutions of the carbohydrate of which the concentration shown here are 5 mg/ml (_.), 2.5 mg/ml (. . . ), 1.25 mg/ml (__) and 0 mg/ml (_). The excitation spectrum of the probe was analyzed for wavelengths 300-500 nm with emission read at 545 nm.\nas §2, §3, §4"}, "[3]": {"settings": "for RFU change (Correlation analysis): probe-specific excitation λ, emission 545 nm", "method": "(§6) 3 μM of each probe was applied to serial two fold dilutions of the carbohydrate of which the concentration shown here are 5 mg/ml (_.), 2.5 mg/ml (. . . ) 1.25 mg/ml (__) and 0 mg/ml (_). The excitation spectrum of the probe was analyzed for wavelengths 300-500 nm with emission read at 545 nm.\nas §2, §3, §4"}, "[4]": {"method": "as §5, with “of the insoluble carbohydrate of” for “of the carbohydrate of”\n(§7) 3 μM of each probe was applied to serial two fold dilutions of the insoluble carbohydrate. Respective probes were excited at wavelengths unique to each probe (specified in figure), and emission was read at 545 nm.\nas §3, §4", "remark": "listed apart in the source"}, "[5]": {"settings": "for RFU change (Correlation analysis) / RFU change (Signal deviation with increasing [Carbohydrate]) / λmax change: 3 μM probe; for RFU change (Correlation analysis): probe-specific excitation λ, emission 545 nm; for RFU change (Signal deviation with increasing [Carbohydrate]) / λmax change: spectral analysis, Excitation 300-500, Emission 545; for carbohydrate can be detected and/or differentiated by the LCO: conclusion from change in signal magnitude and/or shift in λmax; for Gradient Parameters (gradient of regression line) / Linear relationship / Quality of Gradient: linear regression", "method": "as §1, §7, §3, §4"}, "[6]": {"method": "as §6\n3 μM of each probe was applied to serial two fold dilutions of the carbohydrate. Respective probes were excited at wavelengths unique to each probe (specified in figure), and emission was read at 545 nm. […] The mean increase in signal (_) with [Glucose] and the fitted regression line (__) is shown.\nas §3, §4", "remark": "listed apart in the source"}, "[7]": {"settings": "Chondroitin Sulfate A 5-0.019 mg/ml, 3 μM probe, spectral analysis, Excitation 300-500, Emission 545"}, "[8]": {"settings": "Chondroitin Sulfate A concentration vs RFU, linear regression"}, "[9]": {"settings": "Cellulobiose 5-0.019 mg/ml, 3 μM probe, spectral analysis, Excitation 300-500, Emission 545"}, "[10]": {"settings": "amylose concentration vs RFU, linear regression"}, "[11]": {"settings": "sodium alginate concentration vs RFU, linear regression"}, "[12]": {"settings": "β-1,3-glucan concentration vs RFU"}, "[13]": {"settings": "glucose concentration vs RFU, linear regression"}}, "note": "Like-named read-outs stand apart in the source and are kept apart here.", "data": [{"smiles": "NCCCC[C@H](NC(=O)Cc1cc(-c2cccs2)sc1-c1ccc(-c2sc(-c3cccs3)cc2CC(=O)N[C@@H](CCCCN)C(=O)[O-])s1)C(=O)[O-].[Na+].[Na+]", "note": "[pHTA-Lys, penta Hydrogen Thiophene Acetic acid Lysine]", "values": [{"measurement": "RFU change (Correlation analysis)", "setting": "[1]; Chondroitin Sulfate A 5-0.019 mg/ml, 3 μM probe, probe-specific excitation λ, emission 545 nm", "value": "Increases"}, {"measurement": "RFU change (Signal deviation with increasing [Carbohydrate])", "setting": "[1]; [7]", "value": "Decreases"}, {"measurement": "λmax change", "setting": "[1]; [7]", "value": "No change"}, {"measurement": "Gradient Parameters (gradient of regression line)", "setting": "[1]; [8]", "value": "194.8 ± 19.2"}, {"measurement": "Linear relationship", "setting": "[1]; [8]", "value": "Significant"}, {"measurement": "Quality of Gradient", "setting": "[1]; [8]", "value": "Positive"}, {"measurement": "carbohydrate can be detected and/or differentiated by the LCO", "setting": "[1]; Chondroitin sulfate A, conclusion from change in signal magnitude and/or shift in λmax", "value": "can be detected and/or differentiated"}, {"measurement": "Sensitivity", "setting": "[1]; to Chondroitin Sulfate A", "value": "Yes"}, {"measurement": "RFU change (Correlation analysis)", "setting": "[2]; Glycogen 5-0.019 mg/ml", "value": "Increases"}, {"measurement": "RFU change (Signal deviation with increasing [Carbohydrate])", "setting": "[2]; Glycogen 5-0.019 mg/ml", "value": "Increases"}, {"measurement": "carbohydrate can be detected and/or differentiated by the LCO", "setting": "[2]; Glycogen, conclusion from change in signal magnitude and/or shift in λmax", "value": "can be detected and/or differentiated"}, {"measurement": "RFU change (Correlation analysis)", "setting": "[2]; Heparin 5-0.019 mg/ml", "value": "Increases"}, {"measurement": "RFU change (Signal deviation with increasing [Carbohydrate])", "setting": "[2]; Heparin 5-0.019 mg/ml", "value": "Increases"}, {"measurement": "Gradient Parameters (gradient of regression line)", "setting": "[2]; glycogen concentration vs RFU", "value": "43.6 ± 7.9"}, {"measurement": "Linear relationship", "setting": "[2]; glycogen concentration vs RFU", "value": "Significant"}, {"measurement": "Quality of Gradient", "setting": "[2]; glycogen concentration vs RFU", "value": "Positive"}, {"measurement": "Gradient Parameters (gradient of regression line)", "setting": "[2]; heparin concentration vs RFU", "value": "48.4 ± 18.2"}, {"measurement": "Linear relationship", "setting": "[2]; heparin concentration vs RFU", "value": "Significant"}, {"measurement": "Quality of Gradient", "setting": "[2]; heparin concentration vs RFU", "value": "Positive"}, {"measurement": "Sensitivity", "setting": "[2]; to glycogen", "value": "Yes"}, {"measurement": "Sensitivity", "setting": "[2]; to heparin", "value": "Yes"}, {"measurement": "RFU change (Correlation analysis)", "setting": "[3]; Amylose 5-0.019 mg/ml, 3 μM probe", "value": "Increases"}, {"measurement": "RFU change (Signal deviation with increasing [Carbohydrate])", "setting": "[3]; Amylose 5-0.019 mg/ml, 3 μM probe, spectral analysis, Excitation 300-500, Emission 545", "value": "Increases"}, {"measurement": "carbohydrate can be detected and/or differentiated by the LCO", "setting": "[3]; Amylose, conclusion from change in signal magnitude and/or shift in λmax", "value": "can be detected and/or differentiated"}, {"measurement": "RFU change (Correlation analysis)", "setting": "[3]; Cellulobiose 5-0.019 mg/ml, 3 μM probe", "value": "Unclear"}, {"measurement": "RFU change (Signal deviation with increasing [Carbohydrate])", "setting": "[3]; [9]", "value": "Unclear"}, {"measurement": "λmax change", "setting": "[3]; [9]", "value": "No change"}, {"measurement": "Gradient Parameters (gradient of regression line)", "setting": "[3]; [10]", "value": "47.7 ± 18.5"}, {"measurement": "Linear relationship", "setting": "[3]; [10]", "value": "Significant"}, {"measurement": "Quality of Gradient", "setting": "[3]; [10]", "value": "Positive"}, {"measurement": "Quality of Gradient", "setting": "[3]; cellulobiose concentration vs RFU, linear regression", "value": "Horizontal"}, {"measurement": "Sensitivity", "setting": "[3]; to amylose", "value": "Yes"}, {"measurement": "Sensitivity", "setting": "[3]; to cellulobiose", "value": "No"}, {"measurement": "RFU change (Correlation analysis)", "setting": "[4]; Sodium alginate 5-0.019 mg/ml, 3 μM probe, probe-specific excitation λ, emission 545 nm", "value": "Increases"}, {"measurement": "RFU change (Signal deviation with increasing [Carbohydrate])", "setting": "[4]; Sodium alginate 5-0.019 mg/ml, 3 μM probe, spectral analysis, Excitation 300-500, Emission 545", "value": "Increases"}, {"measurement": "carbohydrate can be detected and/or differentiated by the LCO", "setting": "[4]; Sodium alginate, conclusion from change in signal magnitude and/or shift in λmax", "value": "can be detected and/or differentiated"}, {"measurement": "Gradient Parameters (gradient of regression line)", "setting": "[4]; [11]", "value": "55.4 ± 5.3"}, {"measurement": "Linear relationship", "setting": "[4]; [11]", "value": "Significant"}, {"measurement": "Quality of Gradient", "setting": "[4]; [11]", "value": "Positive"}, {"measurement": "Sensitivity", "setting": "[4]; to sodium alginate", "value": "Yes"}, {"measurement": "RFU change (Correlation analysis)", "setting": "[5]; Cellulose 10-[…]", "value": "Increase"}, {"measurement": "RFU change (Signal deviation with increasing [Carbohydrate])", "setting": "[5]; Cellulose 10-[…]", "value": "Increase"}, {"measurement": "λmax change", "setting": "[5]; Cellulose 10-[…]", "value": "Redshift"}, {"measurement": "carbohydrate can be detected and/or differentiated by the LCO", "setting": "[5]; Cellulose", "value": "can be detected and/or differentiated"}, {"measurement": "RFU change (Correlation analysis)", "setting": "[5]; Chitin 10-[…]", "value": "Increases"}, {"measurement": "RFU change (Signal deviation with increasing [Carbohydrate])", "setting": "[5]; Chitin 10-[…]", "value": "Increases"}, {"measurement": "λmax change", "setting": "[5]; Chitin 10-[…]", "value": "Redshift"}, {"measurement": "carbohydrate can be detected and/or differentiated by the LCO", "setting": "[5]; Chitin", "value": "can be detected and/or differentiated"}, {"measurement": "Gradient Parameters (gradient of regression line)", "setting": "[5]; cellulose concentration vs RFU", "value": "291.8 ± 46.6"}, {"measurement": "Linear relationship", "setting": "[5]; cellulose concentration vs RFU", "value": "Significant"}, {"measurement": "Quality of Gradient", "setting": "[5]; cellulose concentration vs RFU", "value": "Positive"}, {"measurement": "Gradient Parameters (gradient of regression line)", "setting": "[5]; chitin concentration vs RFU", "value": "273.8 ± 46.2"}, {"measurement": "Linear relationship", "setting": "[5]; chitin concentration vs RFU", "value": "Significant"}, {"measurement": "Quality of Gradient", "setting": "[5]; chitin concentration vs RFU", "value": "Positive"}, {"measurement": "Sensitivity", "setting": "[5]; to cellulose", "value": "Yes"}, {"measurement": "Sensitivity", "setting": "[5]; to chitin", "value": "Yes"}, {"measurement": "Sensitivity", "setting": "[5]; to β-1,3-glucan", "value": "Yes"}, {"measurement": "carbohydrate can be detected and/or differentiated by the LCO", "setting": "[5]; β-1,3-Glucan", "value": "can be detected and/or differentiated"}, {"measurement": "RFU change (Correlation analysis)", "setting": "[5]; β-1,3-glucan 10-[…]", "value": "Increase"}, {"measurement": "RFU change (Signal deviation with increasing [Carbohydrate])", "setting": "[5]; β-1,3-glucan 10-[…]", "value": "Decrease"}, {"measurement": "Gradient Parameters (gradient of regression line)", "setting": "[5]; [12]", "value": "107.9 ± 16.4"}, {"measurement": "Quality of Gradient", "setting": "[5]; [12]", "value": "Positive"}, {"measurement": "RFU change (Correlation analysis)", "setting": "[6]; Glucose 5-0.019 mg/ml, 3 μM probe, probe-specific excitation λ, emission 545 nm", "value": "Unclear"}, {"measurement": "RFU change (Signal deviation with increasing [Carbohydrate])", "setting": "[6]; Glucose 5-0.019 mg/ml, 3 μM probe, spectral analysis, Excitation 300-500, Emission 545", "value": "Unclear"}, {"measurement": "Gradient Parameters (gradient of regression line)", "setting": "[6]; [13]", "value": "23.6 ± 13.7"}, {"measurement": "Quality of Gradient", "setting": "[6]; [13]", "value": "Horizontal"}, {"measurement": "Sensitivity", "setting": "[6]; to glucose", "value": "No"}]}]}
